Patent US4250259A, “Microbiological production of ketones from C3 -C6 secondary alcohols” (priority 1979, dated 1981)

Columns and labels:
[1] = test system: Pseudomonas MS ATTC 25262 (Facultative); assay: sec-alcohols to ketones by resting cell suspensions; format: cell-based; details: methanol-grown cells
Description: (§1) The pH of the nutrient medium was adjusted to 7.0 by the addition of acid or base and 50 ml. samples of the nutrient medium were charged into a plurality of 300 ml. shaker flasks. The shaker flasks were inoculated with an inoculating loop of cells from an agar plate containing homogeneous colonies of the microorganisms on the plate (the purity of the isolates was confirmed by microscopic examination). The isolates had been maintained on methanol (0.4% V/V) agar plates or on agar plates under an atmosphere of methane and air having a 1:1 V/V gas ratio which had been transferred every two weeks. For growth on methanol, the medium was supplemented with 0.4% methanol. For growth on methane, the gaseous phase of the inoculated flasks was replaced with a gas mixture comprised of methane and air having a ratio of 1:1 on a V/V basis. The inoculated flasks were sealed air-tight and were incubated on a rotary shaker of orbital radius 2.5 cm. at 250 rpm and at 30° C. for two days until turbidity in the medium had developed. The cells were harvested by centrifugation at 10,000×g. at 4° C. for 30 minutes. The cell pellet was washed twice with a 0.05 M phosphate buffer at a pH of 7.0 (containing 0.02 M MgCl2). The washed cells were then suspended in a 0.05 M phosphate buffer at pH 7.0.
(§2) A 0.5 ml. sample of each washed cell suspension (2 mg. cells) was put into 10 ml. vials at 4° C. which were sealed with a rubber cap. The gaseous phase of the vials was removed with vacuum and then was replaced with a gas mixture of the substrate reactant (i.e., alkane or secondary alcohol) and oxygen at a 1:1 V/V ratio. (In the case of a liquid substrate, i.e., secondary alcohol, 10 μl of the substrate was put in the 10 ml. vials). […] Samples of product (1-3 μl) were withdrawn periodically with a microsyringe and the products were analyzed by gas chromatography (ionization flame detector column).
(§3) The procedure in Example 1 was repeated except that a plurality of methanol-utilizing methylotrophic microorganisms were each aerobically grown in a methanol-containing nutrient medium instead of a methane-containing medium. The nutrients in the medium were the same as indicated in Example 1 except that 0.4% V/V methanol was used as the alcohol dehydrogenase inducer and as the major carbon and energy source for growth. The cells were harvested and washed as described in Example 1. The resting microbial cells of the induced methanol-grown methanol-utilizing methylotrophic microorganisms were then contacted with C3 -C6 secondary alcohols in a buffered solution by the procedure of Example 1.

[2] = test system: Pseudomonas sp. ATCC 21439 (Obligate); assay: as above; format: cell-based; details: methanol-grown cells
Description: as §1, §2, §3

[3] = test system: Methanomonas methylovora ATCC 21852 (Obligate); assay: as above; format: cell-based
Description: as §1, §2, §3
(§4) The procedure in Example 1 was repeated except that the methylotrophic microorganisms were each aerobically grown in an alcohol dehydrogenase-inducing growth medium containing methylamine or methyl formate as the alcohol dehydrogenase enzyme inducer and growth substrate instead of methane. The nutrients in the medium were the same as indicated in Example 1 except that 0.4% V/V of the alcohol dehydrogenase-inducer growth substrate was used as the major carbon and energy source. The cells were harvested and washed as described in Example 1. The resting microbial cells were then contacted with C3 -C6 secondary alcohols in a buffered solution by the conversion procedure of Example 1.

[4] = test system: Pseudomonas sp. ATCC 21438 (Facultative); assay: as above; format: cell-based
Description: as §1, §2, §3, §4

[5] = test system: secondary alcohol dehydrogenase (SADH), cell-free soluble extract; assay: oxidation of sec-alcohols by cell-free soluble extracts; format: biochemical, Methylococcus capsulatus CRL M1 (NRRL B-11,219); details: soluble crude extract; grown on methanol
Description: (§5) To prepare the cell-free secondary alcohol dehydrogenase (SADH) system, the washed cells were disrupted with a Wave Energy Ultrasonic Oscillator, Model W201 (Wave Energy System, Inc., Newtown, Pa.) and centrifuged at 20,000×g. for 30 minutes. […] The enzyme activity was measured with a fluorescence spectrophotometer (Perkin Elmer, Model MPF 44A) by following the formation of reduced NAD (EX 340 nm, Em 460 nm). The formation of reduced NAD was also followed with an absorption spectrophotometer at 340 nm. The assay system (3 ml.) contained: potassium phosphate buffer pH 7.0; 150 μmol.; NAD 1 μmol.; a given amount of enzyme preparation; and secondary alcohol 10 μmol. The reaction was started by the addition of substrate. One unit of enzyme activity represents the reduction of one μmole NAD per minute. Protein concentrations were determined by the Lowry method (J. Biol. Chem., 193: 255-275 (1951)).
(§6) The experimental procedure for the tests reported in Table VIII were as follows: 1 mg protein of crude extract was added into a 0.5 ml. 0.05 M phosphate buffer (pH 7.0) in a 10-ml. vial. […] The reaction mixture was incubated at 30° C. on a water bath. A 3 μl sample was removed with a syringe at 15 min. of incubation and was assayed with g.l.c. Catalytic activity was also assayed by fluorescence spectrophotometry.

[6] = test system: secondary alcohol dehydrogenase (SADH), cell-free soluble extract; assay: as above; format: biochemical, Pseudomonas sp. CRL 75 (ATCC 21,439); details: soluble crude extract; grown on methanol
Description: as §5, §6

[7] = test system: Candida utilis ATCC 26387; assay: sec-alcohols to ketones by cell suspensions of yeasts; format: cell-based
[8] = test system: Torulopsis sp. Strain A1 (NRRLY-11,419); assay: as above; format: cell-based
[9] = test system: cell extracts (NAD+-dependent secondary alcohol dehydrogenase); assay: sec-alcohols to methyl ketones by cell extracts of yeasts, gas chromatography; format: biochemical, Candida utilis ATCC 26,387; details: grown on methanol
Description: The supernantant liquid was termed the crude extracts.
The reaction mixture, in a total of 3.0 ml., contained 50 mM phosphate buffer, pH 7.0, 20 μmole NAD^+, cell extracts (1 ml.).
The ketone product obtained from oxidation of sec-alcohols by cell extracts of organisms were estimated by flame ionization gas chromatography by using a stainless steel column (12 ft. by 1/8 in.) packed with 10% Carbowax 20 M on 80/100 chromosorb w column (Perkin Elmer Corp., Norwalk, Conn.). The column temperature was maintained isothermally at 130° C. and the carrier gas flow was 30 ml. of helium per min. […] The protein content of cell-suspensions was determined by the Lowry et al. method.
NRRL Y-11,328 Torulopsis sp.

CCCC(C)O (stereo not drawn) [2-Pentanol, 2-pentanol]
Conversion Rates, sec-alcohol to corresponding ketone [1]: 2.1 μmoles/hr/mg protein
Conversion Rates, sec-alcohol to corresponding ketone [2]: 0.05 μmoles/hr/mg protein
Conversion Rates, sec-alcohol to corresponding ketone ([3]; methanol-grown cells): 2.1 μmoles/hr/mg protein
Conversion Rates, sec-alcohol to corresponding ketone ([3]; methyl formate-grown cells): 1.5 μmoles/hr/mg protein
Conversion Rates, sec-alcohol to corresponding ketone ([3]; methylamine-grown cells): 1.0 μmoles/hr/mg protein
Conversion Rates, sec-alcohol to corresponding ketone ([4]; methanol-grown cells): 2.7 μmoles/hr/mg protein
Conversion Rates, sec-alcohol to corresponding ketone ([4]; methyl formate-grown cells): 2.0 μmoles/hr/mg protein
Conversion Rates, sec-alcohol to corresponding ketone ([4]; methylamine-grown cells): 0.82 μmoles/hr/mg protein
Oxidation Rate, sec-alcohol to corresponding ketone [5]: 0.1 nmole/min/mg protein
Oxidation Rate, sec-alcohol to corresponding ketone [6]: 1.2 nmole/min/mg protein
Conversion Rate, sec-alcohol to corresponding ketone ([7]; Growth Substrate Ethanol): 1.0 μmoles/hr/mg of protein
Conversion Rate, sec-alcohol to corresponding ketone ([7]; Growth Substrate Methanol): 1.5 μmoles/hr/mg of protein
Conversion Rate, sec-alcohol to corresponding ketone ([7]; Growth Substrate Methylamine): 1.2 μmoles/hr/mg of protein
Conversion Rate, sec-alcohol to corresponding ketone ([7]; Growth Substrate Methylformate): 1.3 μmoles/hr/mg of protein
Conversion Rate, sec-alcohol to corresponding ketone ([7]; Growth Substrate Propylamine): 0.9 μmoles/hr/mg of protein
Conversion Rate, sec-alcohol to corresponding ketone ([8]; Growth Substrate Ethanol): 1.2 μmoles/hr/mg of protein
Conversion Rate, sec-alcohol to corresponding ketone ([8]; Growth Substrate Methanol): 1.0 μmoles/hr/mg of protein
Conversion Rate, sec-alcohol to corresponding ketone ([8]; Growth Substrate Methylamine): 0.9 μmoles/hr/mg of protein
Conversion Rate, sec-alcohol to corresponding ketone ([8]; Growth Substrate Methylformate): 1.1 μmoles/hr/mg of protein
Conversion Rate, sec-alcohol to corresponding ketone ([8]; Growth Substrate Propylamine): 0.62 μmoles/hr/mg of protein
Conversion Rate, sec-alcohol to methyl ketone [9]: 0.82 μmoles/hr/mg Protein

CC(C)O [2-Propanol, 2-propanol]
Conversion Rates, sec-alcohol to corresponding ketone [1]: 0.80 μmoles/hr/mg protein
Conversion Rates, sec-alcohol to corresponding ketone [2]: 7.4 μmoles/hr/mg protein
Conversion Rates, sec-alcohol to corresponding ketone ([3]; methanol-grown cells): 0.28 μmoles/hr/mg protein
Conversion Rates, sec-alcohol to corresponding ketone ([3]; methyl formate-grown cells): 0.62 μmoles/hr/mg protein
Conversion Rates, sec-alcohol to corresponding ketone ([3]; methylamine-grown cells): 0.82 μmoles/hr/mg protein
Conversion Rates, sec-alcohol to corresponding ketone ([4]; methanol-grown cells): 0.45 μmoles/hr/mg protein
Conversion Rates, sec-alcohol to corresponding ketone ([4]; methyl formate-grown cells): 0.52 μmoles/hr/mg protein
Conversion Rates, sec-alcohol to corresponding ketone ([4]; methylamine-grown cells): 1.0 μmoles/hr/mg protein
Oxidation Rate, sec-alcohol to corresponding ketone [5]: 1.7 nmole/min/mg protein
Oxidation Rate, sec-alcohol to corresponding ketone [6]: 21.2 nmole/min/mg protein
Conversion Rate, sec-alcohol to corresponding ketone ([7]; Growth Substrate Ethanol): 5.2 μmoles/hr/mg of protein
Conversion Rate, sec-alcohol to corresponding ketone ([7]; Growth Substrate Methanol): 6.2 μmoles/hr/mg of protein
Conversion Rate, sec-alcohol to corresponding ketone ([7]; Growth Substrate Methylamine): 5.0 μmoles/hr/mg of protein
Conversion Rate, sec-alcohol to corresponding ketone ([7]; Growth Substrate Methylformate): 5.6 μmoles/hr/mg of protein
Conversion Rate, sec-alcohol to corresponding ketone ([7]; Growth Substrate Propylamine): 4.2 μmoles/hr/mg of protein
Conversion Rate, sec-alcohol to corresponding ketone ([8]; Growth Substrate Ethanol): 4.2 μmoles/hr/mg of protein
Conversion Rate, sec-alcohol to corresponding ketone ([8]; Growth Substrate Methanol): 4.5 μmoles/hr/mg of protein
Conversion Rate, sec-alcohol to corresponding ketone ([8]; Growth Substrate Methylamine): 4.3 μmoles/hr/mg of protein
Conversion Rate, sec-alcohol to corresponding ketone ([8]; Growth Substrate Methylformate): 4.5 μmoles/hr/mg of protein
Conversion Rate, sec-alcohol to corresponding ketone ([8]; Growth Substrate Propylamine): 3.2 μmoles/hr/mg of protein
Conversion Rate, sec-alcohol to methyl ketone [9]: 4.5 μmoles/hr/mg Protein
